Activity calls are given as the source filed them.
Experiments:
[1] = growth suppression of beta-catenin-knockout colon cells, dose response, cell-based, HCT116, human colon tumor (AID 1045); type: functional;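 note: HCT116 colon tumor cells with beta catenin knocked out; cells exposed to compound for 60 hours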
[2] = growth suppression of PTEN-null colon cells, dose response, cell-based, HCT116 PTEN knockout (AID 1047); type: functional;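 note: HCT116 colon tumor cells with PTEN knocked out; cells exposed to compound for 60 hours before readout; potency for loss of cell viability measured by luminescence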
Streptococcus = assay: Group A Streptococcus viability loss, dose response, counter-screen for streptokinase expression inhibitor project, luminescence, BacTiterGlo (AID 1915); type: functional, organism-based;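 note: potency for reduction of bacterial viability or growth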
[3] = C. albicans growth with fluconazole, confirmation, fluorescence, retest (AID 2467); type: functional, cell-based
[4] = test system: Streptococcus sp. 'group A'; assay: growth inhibition of control SK(-) GAS strain, dose response, counter-screen for streptokinase expression inhibitor project, luminescence, kanamycin, BacTiterGlo, confirmation (AID 1900); type: functional, organism-based
[5] = NIH-3T3 fibroblast cytotoxicity, dose response, cytotoxicity control, cell-based, fluorescence, Alamar Blue, secondary assay (AID 2327); type: functional;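 note: NIH-3T3 mouse fibroblasts cultured with fluconazole at 8 µg/mL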
[6] = target: FAD-linked sulfhydryl oxidase ALR (Homo sapiens, UniProt P55789); assay: inhibitors of human ALR sulfhydryl oxidase, dose response, biochemical, H2O2 detection, luminescence, cherry-pick (AID 493248)
[7] = target: T1, Polyadenylate-binding protein 1 (Homo sapiens, UniProt P11940); assay: PABP1 MLLE–PAM2 interaction inhibitors, dose response, miRNA deadenylation inhibitor project, biochemical, fluorescence polarization, Cy5-PAM2 peptide, secondary (AID 602260); type: functional; conditions: read-out: IC50_Mean
[8] = target: T1, Polyadenylate-binding protein 1; assay: PABP1 MLLE–PAM2 binding inhibitor potency, dose response, biochemical, fluorescence polarization, FITC-PAM2 peptide (AID 602259); type: functional; conditions: read-out: IC50_Mean
[9] = target: T2, Ubiquitin-conjugating enzyme E2 N (Homo sapiens, UniProt P61088); type: functional;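 note: Dose-response confirmation in a TR-FRET assay detecting UBC13-driven polyubiquitin chain formation, inhibition measured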
T2 sequence (P61088 whole entry): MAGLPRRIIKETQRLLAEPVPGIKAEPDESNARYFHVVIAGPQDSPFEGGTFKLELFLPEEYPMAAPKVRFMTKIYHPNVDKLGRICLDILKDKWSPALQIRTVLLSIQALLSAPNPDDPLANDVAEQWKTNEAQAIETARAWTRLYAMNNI

[10] = target: T3, Rac GTPase-activating protein 1 (Homo sapiens, UniProt Q9H0H5); assay: MgcRacGAP GTPase-activating activity inhibitors, confirmation, biochemical, ADP Hunter fluorescence, primary and confirmatory (AID 624330); type: functional
T3 sequence (Q9H0H5 whole entry): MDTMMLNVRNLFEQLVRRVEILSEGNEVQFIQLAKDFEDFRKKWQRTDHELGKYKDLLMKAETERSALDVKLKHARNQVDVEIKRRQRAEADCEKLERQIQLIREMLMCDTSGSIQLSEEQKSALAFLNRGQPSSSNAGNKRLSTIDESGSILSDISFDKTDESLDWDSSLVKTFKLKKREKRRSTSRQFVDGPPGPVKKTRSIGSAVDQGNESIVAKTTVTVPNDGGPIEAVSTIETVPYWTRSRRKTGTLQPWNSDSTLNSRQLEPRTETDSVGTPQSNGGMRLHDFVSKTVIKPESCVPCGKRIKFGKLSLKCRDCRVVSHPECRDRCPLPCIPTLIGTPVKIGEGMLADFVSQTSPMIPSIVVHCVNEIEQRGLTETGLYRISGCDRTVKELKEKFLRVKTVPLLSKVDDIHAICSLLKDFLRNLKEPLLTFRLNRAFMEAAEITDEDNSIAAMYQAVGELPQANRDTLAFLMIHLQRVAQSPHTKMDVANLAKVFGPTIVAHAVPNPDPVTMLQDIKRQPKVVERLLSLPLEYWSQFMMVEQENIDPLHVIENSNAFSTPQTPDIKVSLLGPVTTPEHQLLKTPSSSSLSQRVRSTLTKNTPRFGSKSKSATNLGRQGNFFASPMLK

Streptokinase A = target: T4, Streptokinase A (Streptococcus pyogenes serotype M1, UniProt P10520); assay: S. pyogenes streptokinase expression inhibitors, potency, dose response, plasminogen activation absorbance, OD405 (AID 1914); type: functional, Streptococcus pyogenes M1 GAS;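 note: secreted streptokinase activity via plasminogen activation per viability signal from cell pellet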
T4 sequence (P10520 whole entry): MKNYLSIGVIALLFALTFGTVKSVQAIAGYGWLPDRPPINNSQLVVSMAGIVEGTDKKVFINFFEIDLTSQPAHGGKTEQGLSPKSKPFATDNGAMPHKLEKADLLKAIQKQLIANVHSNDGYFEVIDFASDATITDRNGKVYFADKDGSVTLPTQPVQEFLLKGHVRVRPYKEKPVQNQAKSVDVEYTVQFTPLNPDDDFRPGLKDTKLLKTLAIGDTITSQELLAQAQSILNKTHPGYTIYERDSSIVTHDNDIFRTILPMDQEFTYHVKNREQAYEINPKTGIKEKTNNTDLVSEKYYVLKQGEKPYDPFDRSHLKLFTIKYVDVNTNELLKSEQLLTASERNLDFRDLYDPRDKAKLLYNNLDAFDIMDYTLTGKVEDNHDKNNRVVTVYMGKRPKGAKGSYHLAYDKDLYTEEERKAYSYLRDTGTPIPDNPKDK

[11] = cytotoxicity toward NIH3T3 fibroblasts, dose response, counter-screen, cell-based, ATP luminescence, mouse fibroblasts (AID 2010); type: functional;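 note: cells exposed to compound for about 90 hours before reading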
[12] = inhibitors of intracellular T. cruzi replication, confirmation, NIH3T3 host cells, beta-gal luminescence (AID 2044); type: functional, cell-based;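 note: intracellular parasites grown in NIH/3T3 mouse fibroblasts as host cells; luminescent beta-galactosidase reporter signal from transgenic T. cruzi replicating inside host cells; inhibitors lower the luminescence signal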
[13] = control 3'UTR Renilla luciferase suppression, dose response, counter-screen for Shn3 inhibitor project, cell-based, Clone20-Shn3RL, cherry-picked (AID 624133); type: functional
H4 = assay: Luminescence Cell-Based Dose Response HTS to Identify Activators of 5'UTR Stem-Loop Driven Prion Protein mRNA Translation in H4 Neuroglioblastoma Cells. [Related pubchem assays: 1829 (Project Summary), 1814 (Primary HTS)]; type: functional; conditions: Homo sapiens
[14] = Luminescence Cell-Based Dose Confirmation HTS to Identify Activators of 5'UTR Stem-Loop Driven Alpha-Synuclein mRNA Translation in H4 Neuroglioblastoma Cells. [Related pubchem assays: 1829 (Project Summary), 1814 (Primary HTS)]; type: functional
[15] = Luminescence Cell-Based Dose Response HTS to Identify Activators of Luciferase Translation or Activity in H4 […] Cells. [Related pubchem assays: 1829 (Project Summary), 1814 (Primary HTS)]; type: functional
[16] = P. falciparum Dd2 growth inhibitors, dose response, SYBR Green, cherry-picked samples (AID 1159567); type: functional, cell-based
[17] = inhibitors of SNCA 5'UTR-driven reporter translation, confirmation, H4 neuroglioma cells, luminescence (AID 1988); type: functional, cell-based
[18] = Luminescence Cell-Based Dose Response HTS to Identify Inhibitors of 5'UTR Stem-Loop Driven Prion Protein mRNA Translation in H4 Neuroglioblastoma Cells. [Related pubchem assays: 1827 (Project Summary), 1813 (Primary HTS)]; type: functional
[19] = inhibitors of firefly luciferase expression or activity, dose response, H4 neuroglioma cells, luminescence (AID 1990); type: functional, cell-based

Chain of FAD-linked sulfhydryl oxidase ALR (P55789 whole entry): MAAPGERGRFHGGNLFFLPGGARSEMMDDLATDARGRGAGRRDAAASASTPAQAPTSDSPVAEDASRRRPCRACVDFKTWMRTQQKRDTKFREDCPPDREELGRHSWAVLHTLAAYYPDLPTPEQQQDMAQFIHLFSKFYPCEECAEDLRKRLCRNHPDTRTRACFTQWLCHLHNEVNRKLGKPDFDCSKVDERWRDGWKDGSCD
T1 sequence (P11940 whole entry): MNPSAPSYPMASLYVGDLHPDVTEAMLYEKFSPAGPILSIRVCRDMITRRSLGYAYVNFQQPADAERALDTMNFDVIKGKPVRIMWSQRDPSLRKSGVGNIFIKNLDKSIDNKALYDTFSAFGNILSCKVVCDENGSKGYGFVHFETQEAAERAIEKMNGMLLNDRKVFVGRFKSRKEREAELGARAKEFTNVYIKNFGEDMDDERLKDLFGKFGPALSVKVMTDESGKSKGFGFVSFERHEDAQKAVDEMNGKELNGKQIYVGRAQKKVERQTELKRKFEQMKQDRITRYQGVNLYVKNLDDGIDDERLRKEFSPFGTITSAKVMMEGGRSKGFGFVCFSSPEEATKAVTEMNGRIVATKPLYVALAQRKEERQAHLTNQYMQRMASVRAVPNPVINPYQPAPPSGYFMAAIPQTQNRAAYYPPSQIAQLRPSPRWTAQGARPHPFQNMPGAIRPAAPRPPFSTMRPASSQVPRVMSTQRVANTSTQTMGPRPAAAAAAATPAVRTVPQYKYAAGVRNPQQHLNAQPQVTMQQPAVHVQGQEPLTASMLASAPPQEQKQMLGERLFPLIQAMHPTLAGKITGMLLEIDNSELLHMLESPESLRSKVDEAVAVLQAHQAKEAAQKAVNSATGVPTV

O=C1/C(=C\c2cccnc2)CCc2ccccc21
EC50 [1]: 14.5 µM (active)
EC50 [2]: 15.4 µM (active)

Cc1ccc(NC(=S)c2nc3ccccc3[nH]2)cc1
EC50 (Streptococcus): 7.64 µM (active)
EC50 [1]: 19.2 µM (active)
EC50 [3]: > 38 µM (not active)
EC50 [2]: 26.3 µM (active)
EC50 [4]: 3.7 µM (active)
EC50 [5]: > 160 µM (inactive)

N#Cc1cnn(-c2ccccc2)c1NC(=O)CN1CCN(c2ccccc2)CC1
AC50 [6]: 13.4 µM (active)

CCOC(=O)c1nc(Nc2ccc(C)cc2)c2ccccc2n1
IC50 [7]: > 66 µM (inactive)
IC50 [8]: > 66 µM (inactive)

CCOC(=O)c1c(CN2CCN(c3ccccc3)CC2)oc2ccc(O)cc12
IC50 [9]: > 20 µM (inactive)

C=CCn1c(SCC(=O)c2c(N)n(C)c(=O)n(C)c2=O)nc2sc(CC)cc2c1=O
EC50 [1]: 23.3 µM (active)
EC50 [2]: 26.2 µM (active)

COc1ccc(NC(=O)CSc2nnc(-c3ccccc3C)n2N)cc1
IC50 [7]: > 66 µM (inactive)
IC50 [8]: > 66 µM (inactive)

COc1ccc2oc(C(=O)c3ccccc3)c(NC(=O)CN3CCN(C)CC3)c2c1
EC50 [1]: 14.1 µM (active)
EC50 [2]: 15.9 µM (active)

O=C(c1cccc(F)c1)N1CCC(c2nc3ccccc3s2)CC1
AC50 [6]: 0.433 µM (active)

O=C(c1oc2ccccc2c1CSCc1ccccc1)N1CCN(c2ncccn2)CC1
IC50 [7]: > 66 µM (inactive)
IC50 [8]: 38.5 µM (inactive)

CSCCO/C(O)=C1/Sc2cc(C)ccc2N=C1C
IC50 [10]: 52.9 µM (active)

CCOC(=O)c1c(NC(=O)C2Cc3ccccc3C(=O)O2)sc2c1CCCC2 (stereo not given)
EC50 [3]: > 38 µM (not active)
EC50 [5]: > 160 µM (inactive)

Cc1cc(C)n(N=C(S)NC2CCCC2)c(=O)c1C#N
IC50 [7]: > 66 µM (inactive)
IC50 [8]: > 66 µM (inactive)

COc1cc(Nc2c([N+](=O)[O-])nn(-c3ccc4c(c3)OCCO4)[n+]2[O-])cc(OC)c1
EC50 (Streptococcus): 19 µM (active)
EC50 [1]: 1.78 µM (active)
EC50 (Streptokinase A): > 150 µM (not active)
EC50 [2]: 2.29 µM (active)
EC50 [4]: 2.35 µM (active)

Cc1ccc2[nH]c(CCc3ccc(N)cc3)nc2c1
AC50 [6]: 0.018 µM (active)

CC(=O)n1cc([C@H]2C=C(C(=O)Nc3ccccc3)O[C@@H](OCCCCO)C2)c2ccccc21
IC50 [9]: > 20 µM (inactive)

COc1ccc(N2C(=O)/C(=C/N(C)C)NC2=S)cc1
IC50 [10]: 75.4 µM (active)

CCOc1ccccc1Oc1c[nH]nc1-c1ccc(O)cc1O
IC50 [10]: 35.5 µM (active)

COc1cccc(N2C(=O)CC(N3CCc4ccccc43)C2=O)c1 (stereo not given)
AC50 [6]: 1.21 µM (active)

Cc1nn(C)c(C(=O)NC(=S)Nc2ccc([N+](=O)[O-])cc2)c1Cl
IC50 [7]: > 66 µM (inactive)
IC50 [8]: > 66 µM (inactive)

Cc1ccc(SCCN2CCN(Cc3ccccc3)CC2)cc1
EC50 [11]: > 60 µM (not active)
EC50 [12]: 0.549 µM (active)
IC50 [10]: 84.8 µM (active)

COc1ccc(N2CCN(S(=O)(=O)c3c(C)nc4scc(C)n4c3=O)CC2)cc1
IC50 [10]: 209 µM (active)

COc1ccc(CCNCc2cccc(C(F)(F)F)c2)cc1OC
IC50 [10]: 186 µM (active)

CC(Cc1cccs1)NC(=O)Nc1ccc(F)cc1 (stereo not given)
AC50 [13]: 28.8 µM (active)

CC(C(=O)NC1C(=O)N2C(C(=O)O)=C(CSc3nnnn3C)CSC12)n1cc(Cl)cn1 (stereo not given)
EC50 (Streptococcus): 0.343 µM (active)
IC50 [7]: > 66 µM (inactive)
EC50 [4]: 0.161 µM (active)
IC50 [8]: > 66 µM (inactive)

CCn1c(C)nc2cc(C(=O)NN=C(S)Nc3ccc(Cl)cc3Cl)ccc21
EC50 [3]: 6.98 µM (active)
EC50 [5]: > 160 µM (inactive)

COc1cccc(C(=O)NC2=NCCS2)c1OC
IC50 [7]: > 66 µM (inactive)
IC50 [8]: > 66 µM (inactive)

O=C(CSc1nc(-c2ccccc2)cs1)Nc1nccs1
EC50 [3]: > 38 µM (not active)
EC50 [5]: > 160 µM (inactive)

O=C(NNC(=O)c1ccccc1O)c1ccc(Cl)c(S(=O)(=O)N2CCCCC2)c1
AC50 [6]: 56.4 µM (active)

OCCNc1nc(Nc2cc(Cl)ccc2OC2CCCC2)nc(N2CCCC2)n1
IC50 [9]: > 20 µM (inactive)

OCC(O)CN=C(S)NC1CCCCC1 (stereo not given)
IC50 [7]: > 66 µM (inactive)
IC50 [8]: > 66 µM (inactive)

CC[C@@H](C)[C@@H]1CN([C@@H](CN2CCC[C@H]2CN2C(N)=NC[C@@H]2Cc2ccccc2)C(C)C)C(=N)N1CCCC1CCCC1
IC50 [9]: > 20 µM (inactive)

CC(C)NC(=S)N/N=C/c1ccc(C(C)(C)C)cc1
EC50 [3]: > 38 µM (not active)
EC50 [5]: 91.3 µM (inconclusive)

CC(C)Oc1ccc(Cl)cc1Nc1nc(NCCO)nc(N2CCCC2)n1
IC50 [9]: > 20 µM (inactive)

O=C(O/N=C1/CCSc2ccccc21)c1ccc(F)cc1
EC50 [3]: > 38 µM (not active)
EC50 [5]: 30.1 µM (active)

CCN(CC)c1ccc(/C=N/NC(=O)Nc2nonc2N)cc1
EC50 (H4): 30.9 µM (active)
AC50 [6]: 1.38 µM (active)
EC50 [14]: 98.8 µM (active)
EC50 [15]: 7.18 µM (active)

CC(C)C[C@H](NC(=O)c1[nH]cnc1C(=O)N[C@@H](CCCCN)C(=O)OC(C)(C)C)C(=O)OC(C)(C)C
IC50 [9]: > 20 µM (inactive)

CN(C)c1ccc(/C=N/NC(=O)CCc2c[nH]c3ccccc23)cc1
AC50 [6]: 2.11 µM (active)

CCc1sc(N2[C@@H](C#N)[C@@H](c3ccccc3-c3ccccc3)[C@@H]2CO)nc1C
AC50 [16]: 8.33 µM (active)

CC(C)(C)[S@@+]([O-])N1Cc2cc(C(=O)NCCN3CCCC3)nc(-c3cccc(-c4ccc(C#N)cc4)c3)c2[C@H]1CCO
AC50 [16]: 4.66 µM (active)

COc1ccc2c3c([nH]c2c1)[C@@H](CO)N(C(=O)c1cccc(F)c1)CC31CCN(C(=O)c2ccccc2)CC1
AC50 [16]: 5.71 µM (active)

COc1ccccc1NC(=O)N1CCCCN2[C@@H](CO)[C@H](c3ccc(C#CC4CC4)cc3)[C@@H]2C1
AC50 [16]: 5.48 µM (active)

C[C@@H]1CN([C@H](C)CO)C(=O)c2cc(C#Cc3ccccc3F)cnc2O[C@H]1CN(C)C(=O)c1ccc2c(c1)OCO2
AC50 [16]: 3.31 µM (active)

COc1ccc(-c2n(C)c3ccccc3[n+]2CC(=O)OC2CC(C)CCC2C(C)C)cc1 (stereo not given)
EC50 [17]: 8.61 µM (active)
EC50 [18]: 10.9 µM (active)
EC50 [3]: 0.25 µM (active)
EC50 [19]: 8.73 µM (active)
EC50 [5]: 17.4 µM (inconclusive)

Source: ChEMBL document CHEMBL1201862, “PubChem BioAssay data set” (2004)
